Measurements as given in US11104663B2 (priority 2017, dated 2021).
Where two headings read alike, the source gives them in different places.

What was measured:
[1] = format: physicochemical; details: for d50: median particle size; for d10 / d90: particle size; for d10: 10th percentile; for d90: 90th percentile
Experimental: The suspensions were sonicated in a bath or with a sonic probe prior to analysis to deagglomerate and form a homogeneous suspension. Particle size was analyzed by both light obscuration and laser diffraction methods.

[2] = Specific surface area analysis (BET); details: for SSA: BET method
in vivo = details: male, Sprague Dawley (CD), rat, lung
[3] = rat, i.v. 5 mg/kg
[4] = Example 1 processed vs raw material

O=C(O)c1cn(C2CC2)c2cc(N3CCNCC3)c(F)cc2c1=O [Ciprofloxacin Raw material, 1-cyclopropyl-6-fluoro-4-oxo-7-(piperazin-1-yl)-1,4-dihydroquinoline-3-carboxylic acid, reference compound]
d50 [1]: 14.8 μm
d10 [1]: 1.44 μm
d90 [1]: 244 μm
SSA [2]: 11.8 m^2/g

Cl.O=C(O)c1cn(C2CC2)c2cc(N3CCNCC3)c(F)cc2c1=O [Ciprofloxacin hydrochloride Raw material, 1-cyclopropyl-6-fluoro-4-oxo-7-(piperazin-1-yl)-1,4-dihydroquinoline-3-carboxylic acid hydrochloride salt, reference compound]
d50 ([1]; hydrochloride salt): 22.7 μm
d10 ([1]; hydrochloride salt): 6.05 μm
d90 ([1]; hydrochloride salt): 56.0 μm
SSA ([2]; hydrochloride salt): 7.68 m^2/g

O=C(O)c1cn(C2CC2)c2cc(N3CCNCC3)c(F)cc2c1=O [Example 2 processed Batch 1, 1-cyclopropyl-6-fluoro-4-oxo-7-(piperazin-1-yl)-1,4-dihydroquinoline-3-carboxylic acid]
d50 [1]: 4.63 μm
d10 [1]: 1.62 μm
d90 [1]: 9.32 μm
SSA [2]: 7.68 m^2/g

O=C(O)c1cn(C2CC2)c2cc(N3CCNCC3)c(F)cc2c1=O [Ex. 2 ciprofloxacin, 1-cyclopropyl-6-fluoro-4-oxo-7-(piperazin-1-yl)-1,4-dihydroquinoline-3-carboxylic acid]
concentration at 0.5 h (in vivo; inhaled, 3 mg/kg): 153000 ng/g
concentration at 6 h (in vivo; inhaled, 3 mg/kg): 48400 ng/g
concentration at 12 h (in vivo; inhaled, 3 mg/kg): 12800 ng/g
concentration at 24 h (in vivo; inhaled, 3 mg/kg): 607 ng/g

O=C(O)c1cn(C2CC2)c2cc(N3CCNCC3)c(F)cc2c1=O [ciprofloxacin, reference compound]
Lung concentration ([3]; 12 hours): BQL*
Lung concentration ([3]; 24 hours): BQL
concentration at 0.5 h (in vivo; iv, 5 mg/kg): 843 ng/g
concentration at 6 h (in vivo; iv, 5 mg/kg): 113 ng/g

O=C(O)c1cn(C2CC2)c2cc(N3CCNCC3)c(F)cc2c1=O [Example 2 processed Batch 2, 1-cyclopropyl-6-fluoro-4-oxo-7-(piperazin-1-yl)-1,4-dihydroquinoline-3-carboxylic acid]
d50 [1]: 5.57 μm
d10 [1]: 1.79 μm
d90 [1]: 13.3 μm
SSA [2]: 14.3 m^2/g

O=C(O)c1cn(C2CC2)c2cc(N3CCNCC3)c(F)cc2c1=O [Example 2 processed Batch 3, 1-cyclopropyl-6-fluoro-4-oxo-7-(piperazin-1-yl)-1,4-dihydroquinoline-3-carboxylic acid]
d50 [1]: 3.26 μm
d10 [1]: 1.19 μm
d90 [1]: 6.65 μm
SSA [2]: 12.9 m^2/g

Cl.O=C(O)c1cn(C2CC2)c2cc(N3CCNCC3)c(F)cc2c1=O [Example 1 processed, 1-cyclopropyl-6-fluoro-4-oxo-7-(piperazin-1-yl)-1,4-dihydroquinoline-3-carboxylic acid hydrochloride salt]
% Change of d10 [1, 4]: −90%
% Change of d50 [1, 4]: −94%
% Change of d90 [1, 4]: −94%
d50 ([1]; hydrochloride salt): 1.37 μm
d10 ([1]; hydrochloride salt): 0.61 μm
d90 ([1]; hydrochloride salt): 3.64 μm
SSA ([2]; hydrochloride salt): 19.42 m^2/g
% Change of SSA [2, 4]: +153%
